This is an account of results in patent publication US6037361A, “Fluorinated butyric acids and their derivatives as inhibitors of matrix metalloproteinases” (Warner-Lambert Company, priority 1998, dated 2000).

Assay [1] concerns human ovarian carcinoma xenografts. The note with it: mice bearing human ovarian carcinoma xenografts; cited from earlier work.
Assay [2] deals with T1, SCD (stromelysin-1 catalytic domain) (Homo sapiens, UniProt P08254).
T1 construct: SCD (stromelysin-1 catalytic domain); made in house; host or cells: Escherichia coli
T1 sequence (P08254 100-272 limits assumed): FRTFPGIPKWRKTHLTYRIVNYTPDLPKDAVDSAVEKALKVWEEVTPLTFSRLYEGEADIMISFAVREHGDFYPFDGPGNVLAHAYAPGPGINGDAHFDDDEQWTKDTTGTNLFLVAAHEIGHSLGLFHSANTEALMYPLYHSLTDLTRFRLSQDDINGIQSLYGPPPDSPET
In words: IC50 versus SCD with thiopeptolide substrate Ac-Pro-Leu-Gly-thioester-Leu-Leu-Gly-OEt. The assay is classed as biochemical. As for the experimental part: (§1) Experiments were carried out with the catalytic domains of the proteinases. […] IC50 values were determined using a thiopeptolide substrate, Ac-Pro-Leu-Gly-thioester-Leu-Leu-Gly-OEt (Ye Q. -Z., Johnson L. L., Hupe D. J., and Baragi V., "Purification and Characterization of the Human Stromelysin Catalytic Domain Expressed in Escherichia coli", Biochemistry, 1992;31:11231-11235).

Assay [3] addresses GCD (recombinant gelatinase A catalytic domain). In words: IC50 versus GCD with thiopeptolide substrate Ac-Pro-Leu-Gly-thioester-Leu-Leu-Gly-OEt. In kind it is biochemical. As for the experimental part:
as §1

The test system of assay [4] is bovine nasal and pig articular cartilage. The note with it: bovine nasal and pig articular cartilage models for arthritis; cited from earlier work.

The IC50 is the concentration that gives 50% inhibition.

For the molecule `CNC(=O)[C@H](Cc1ccccc1)NC(=O)[C@H](CC(C)C)[C@H](CSc1cccs1)C(=O)NO` [BB-94], the “tumor burden and survival” value in assay [1] was “decreased the tumor burden and prolonged the survival”.
For the molecule `O=C(O)CC(F)(F)C(=O)c1ccc2oc3ccccc3c2c1` [Example 1, 4-Dibenzofuran-2-yl-3,3-difluoro-4-oxo-butyric acid], the IC50 in assay [2] came out at 24 µM; in assay [3] it was 1.95 µM.
In the same order, the values of `O=C(CC(F)(F)C(=O)O)c1ccc2oc3ccccc3c2c1` [Example 2, 4-Dibenzofuran-2-yl-2,2-difluoro-4-oxo-butric acid] are greater than 100 µM and 93.6 µM.
For “TIMP-1: natural endogenous inhibitors of MMPs (TIMPs)”, in assay [4], the “formation of collagen fragments and proteoglycan fragments” value is on record as “prevented the formation of collagen fragments, but not proteoglycan fragments”.
